Laboratory results taken from PubChem BioAssay AID248 (DTP/NCI, 2004).
Inconclusive results and toxic doses are left out. No stated cut-off is given here; in the data, active means T/C of 150% or more; inactive means T/C below 125%. Square brackets hold non-standard residues; d marks the D form. Peptide text beside a SMILES is read from it. * marks the point of attachment. Cbz = O=C(OCc1ccccc1)*; OBn = c1ccc(CO*)cc1; Sar = CNCC(=O)O

Test system: L1210 leukemia ip in BDF1 mice, survival T/C
Experiment: NCI In Vivo Anticancer Drug Screen. Data for tumor model L1210 Leukemia (intraperitoneal) in B6D2F1 (BDF1) mice
Conditions: endpoint: mean survival time, higher = longer survival
Procedure, shortened: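 Tumor cells were implanted, animals were treated, and survival was followed. The result divides the treated measurement by the vehicle-control measurement.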

[1] = dose: 100.0 mg/kg/injection, schedule: Q04DX003 (ip), vehicle: Klucel (hydroxypropylcellulose) (HPC)
[2] = dose: 100.0 mg/kg/injection, schedule: Q04DX003 (ip), vehicle: saline
[3] = dose: 200.0 mg/kg/injection, schedule: Q04DX003 (ip), vehicle: Klucel (hydroxypropylcellulose) (HPC)
[4] = dose: 200.0 mg/kg/injection, schedule: Q04DX003 (ip), vehicle: saline
[5] = dose: 400.0 mg/kg/injection, schedule: Q04DX003 (ip), vehicle: Klucel (hydroxypropylcellulose) (HPC)
[6] = dose: 200.0 mg/kg/injection, schedule: Q01DX009 (ip), vehicle: saline
[7] = dose: 400.0 mg/kg/injection, schedule: Q01DX009 (ip), vehicle: saline
[8] = dose: 100.0 mg/kg/injection, schedule: Q01DX009 (ip), vehicle: Klucel (hydroxypropylcellulose) (HPC)
[9] = dose: 200.0 mg/kg/injection, schedule: Q01DX009 (ip), vehicle: Klucel (hydroxypropylcellulose) (HPC)
[10] = dose: 400.0 mg/kg/injection, schedule: Q01DX009 (ip), vehicle: Klucel (hydroxypropylcellulose) (HPC)
[11] = dose: 50.0 mg/kg/injection, schedule: Q01DX001 (ip), vehicle: saline
[12] = dose: 100.0 mg/kg/injection, schedule: Q01DX001 (ip), vehicle: saline
[13] = dose: 200.0 mg/kg/injection, schedule: Q01DX001 (ip), vehicle: saline
[14] = dose: 400.0 mg/kg/injection, schedule: Q01DX001 (ip), vehicle: saline
[15] = dose: 100.0 mg/kg/injection, schedule: Q04DX003 (ip), vehicle: saline with Tween-80
[16] = dose: 200.0 mg/kg/injection, schedule: Q04DX003 (ip), vehicle: saline with Tween-80
[17] = dose: 400.0 mg/kg/injection, schedule: Q04DX003 (ip), vehicle: saline with Tween-80
[18] = dose: 100.0 mg/kg/injection, schedule: Q01DX001 (ip), vehicle: carboxymethylcellulose (CMC)
[19] = dose: 200.0 mg/kg/injection, schedule: Q01DX001 (ip), vehicle: carboxymethylcellulose (CMC)
[20] = dose: 400.0 mg/kg/injection, schedule: Q01DX001 (ip), vehicle: carboxymethylcellulose (CMC)
[21] = dose: 75.0 mg/kg/injection, schedule: Q01DX001 (ip), vehicle: saline
[22] = dose: 100.0 mg/kg/injection, schedule: Q01DX009 (ip), vehicle: saline with Tween-80
[23] = dose: 200.0 mg/kg/injection, schedule: Q01DX009 (ip), vehicle: saline with Tween-80
[24] = dose: 100.0 mg/kg/injection, schedule: Q01DX001 (ip), vehicle: saline with Tween-80
[25] = dose: 200.0 mg/kg/injection, schedule: Q01DX001 (ip), vehicle: saline with Tween-80

Measured: T/C

CC(=O)OCC1OC(OC(C)=O)C(NC(=O)N(C)C)C(OC(C)=O)C1OC(C)=O (centres undefined)
inactive: dose: 50.0 mg/kg/injection, schedule: Q04DX003 (ip), vehicle: saline 103 % of control | [1] 101 % of control | [2] 106 % of control | [3] 103 % of control | [4] 101 % of control | [5] 103 % of control

CC1CCC2(C)CCC3(C)C4=CCC5C(C)(C)C(O)CCC5(C)C4CCC3(C)C2C1C (centres undefined)
inactive: [6] 87 % of control | [7] 96 % of control

Cc1ccc(C2(C(=O)O)CCCCC2)cc1
inactive: dose: 50.0 mg/kg/injection, schedule: Q01DX009 (ip), vehicle: Klucel (hydroxypropylcellulose) (HPC) 96 % of control | [8] 90 % of control | [1] 102 % of control | [9] 88 % of control | [3] 98 % of control

COc1cc(OC)c([N+](=O)[O-])cc1Cl
inactive: [8] 96 % of control | [1] 96 % of control | [9] 96 % of control | [3] 93 % of control | [10] 92 % of control | [5] 94 % of control

CN(Cc1ccccc1)C(=O)Nc1ccc(Cl)c(Cl)c1
inactive: [8] 97 % of control | [9] 110 % of control | [10] 101 % of control

O=C(COc1cccc(C(=O)O)c1)Nc1ccccc1
inactive: [1] 95 % of control | [3] 93 % of control | [5] 92 % of control

Cc1nc(N)c([N+](=O)[O-])cc1[N+](=O)[O-]
inactive: dose: 100.0 mg/kg/injection, schedule: Q01DX009 (ip), vehicle: acetone 100 % of control

C1C2C1C1C3C2C2C4C5CC5C5C2C1C1C5C4C31 (centres undefined)
inactive: [11] 106 % of control | [12] 112 % of control | [13] 122 % of control | [14] 106 % of control

CCCCCCCC/C=C\CCCCCCCC(=O)OCCCCCCCCCCCCCC
inactive: [8] 104 % of control | [9] 98 % of control | [10] 94 % of control

COc1ccc(OC)c2c(C)c(C)[nH]c12
inactive: [11] 98 % of control | [12] 93 % of control | [13] 109 % of control | [14] 106 % of control

C(CC1CCCCC1)=C(CCC1CCCCC1)CCC1CCCCC1
inactive: [15] 103 % of control | [16] 105 % of control | [17] 100 % of control

Fc1c(Cl)c(F)c(Cl)c(F)c1Cl
inactive: [18] 94 % of control | [19] 97 % of control | [20] 94 % of control

CC1=N/C(=N\c2nc3cc(C)c(C)cc3[nH]2)NC(=O)CC1
inactive: [21] 104 % of control

OCC1C(CO)C2CC1C1N=NN(c3ccccc3)C21 (centres undefined)
inactive: dose: 100.0 mg/kg/injection, schedule: Q04DX002 (ip), vehicle: saline with Tween-80 93 % of control | dose: 200.0 mg/kg/injection, schedule: Q04DX002 (ip), vehicle: saline with Tween-80 90 % of control | dose: 400.0 mg/kg/injection, schedule: Q04DX002 (ip), vehicle: saline with Tween-80 93 % of control

CCCCCC[CH2][Sn]([CH2]CCCCCC)([CH2]CCCCCC)[CH2]CCCCCC
inactive: [8] 103 % of control | [9] 101 % of control | [10] 101 % of control

Cc1ccc2[nH]c(=O)oc(=O)c2c1
inactive: [22] 105 % of control | [23] 102 % of control

CCCP(=S)(CCC)CCC
inactive: [24] 103 % of control | [25] 94 % of control

CCN(CC)C1=C(Cl)C(=O)c2ccccc2C1=O
inactive: [22] 93 % of control | [23] 93 % of control

COc1ccc2c3c1OC1C(O)CCC4C(C2)N(C)CCC341 (centres undefined)
inactive: [21] 92 % of control | [24] 102 % of control | dose: 150.0 mg/kg/injection, schedule: Q01DX001 (ip), vehicle: saline 94 % of control | [25] 102 % of control | dose: 300.0 mg/kg/injection, schedule: Q01DX001 (ip), vehicle: saline 101 % of control

CC1(O)C(=O)C=Cc2ccccc21 (centres undefined)
inactive: dose: 100.0 mg/kg/injection, schedule: Q01DX001 (ip), vehicle: Klucel (hydroxypropylcellulose) (HPC) 93 % of control | dose: 200.0 mg/kg/injection, schedule: Q01DX001 (ip), vehicle: Klucel (hydroxypropylcellulose) (HPC) 102 % of control | dose: 400.0 mg/kg/injection, schedule: Q01DX001 (ip), vehicle: Klucel (hydroxypropylcellulose) (HPC) 96 % of control

CN(CC(=O)OCc1ccccc1)C(=O)CNC(=O)OCc1ccccc1 (Cbz-Gly-[Sar]-OBn)
inactive: [15] 95 % of control | [16] 98 % of control | [17] 98 % of control

O=C1/C(=C/c2ccccc2[N+](=O)[O-])CCc2ccccc21
inactive: dose: 100.0 mg/kg/injection, schedule: Q04DX003 (ip), vehicle: acetone 96 % of control | dose: 200.0 mg/kg/injection, schedule: Q04DX003 (ip), vehicle: acetone 106 % of control | dose: 400.0 mg/kg/injection, schedule: Q04DX003 (ip), vehicle: acetone 95 % of control

CC1(C)OC(=O)C(C#N)C1c1ccccc1 (centres undefined)
inactive: [12] 93 % of control | [13] 91 % of control | [14] 96 % of control

CCOC(=O)NNC(N)=S
inactive: [8] 102 % of control | [1] 103 % of control | [9] 97 % of control | [3] 94 % of control | [10] 98 % of control | [5] 100 % of control

Cc1ccc(-c2c(C)c(-c3ccccc3)c(-c3ccccc3)c(C)c2-c2ccccc2)cc1C
inactive: [24] 104 % of control | [25] 100 % of control | dose: 400.0 mg/kg/injection, schedule: Q01DX001 (ip), vehicle: saline with Tween-80 100 % of control

CCCCC(CC)C(O)CC(O)CC (centres undefined)
inactive: [22] 92 % of control | [23] 92 % of control | dose: 400.0 mg/kg/injection, schedule: Q01DX009 (ip), vehicle: saline with Tween-80 95 % of control

CC(C)OC(=O)Nc1ccc(Cl)cn1
inactive: [1] 103 % of control | [3] 101 % of control | [5] 95 % of control

C/C=C/C=C/C(=O)N(C)c1ccccc1
inactive: dose: 50.0 mg/kg/injection, schedule: Q01DX001 (ip), vehicle: carboxymethylcellulose (CMC) 111 % of control | [18] 103 % of control | [19] 103 % of control | [20] 100 % of control

C[C@H](CCC(=O)O)[C@H]1CC[C@H]2[C@@H]3CCC4=C(O)C(=O)CC[C@]4(C)[C@H]3CC(=O)[C@]12C
inactive: dose: 100.0 mg/kg/injection, schedule: Q01DX001 (sc), vehicle: steriod suspending solution 101 % of control | dose: 200.0 mg/kg/injection, schedule: Q01DX001 (sc), vehicle: steriod suspending solution 98 % of control | dose: 400.0 mg/kg/injection, schedule: Q01DX001 (sc), vehicle: steriod suspending solution 103 % of control

C/C(N)=N\O
inactive: dose: 100.0 mg/kg/injection, schedule: Q04DX002 (ip), vehicle: saline 105 % of control | dose: 200.0 mg/kg/injection, schedule: Q04DX002 (ip), vehicle: saline 102 % of control | dose: 400.0 mg/kg/injection, schedule: Q04DX002 (ip), vehicle: saline 105 % of control

Cc1ccc(N=Nc2ccc(C)cc2NC(=O)c2c(Br)c(Br)c(Br)c(Br)c2C(=O)O)cc1
inactive: [22] 93 % of control | [23] 93 % of control

CCCCNC(=O)Nc1cccc(C)c1C
inactive: [8] 101 % of control | [1] 95 % of control | [9] 94 % of control | [3] 93 % of control | [10] 93 % of control | [5] 97 % of control

CC[n+]1c(COCCOc2ccccc2)sc2cc3c(cc21)OCO3
inactive: [12] 101 % of control

Cc1ccc(OCC(N)=O)cc1
inactive: dose: 50.0 mg/kg/injection, schedule: Q04DX002 (ip), vehicle: Klucel (hydroxypropylcellulose) (HPC) 100 % of control | dose: 100.0 mg/kg/injection, schedule: Q04DX002 (ip), vehicle: Klucel (hydroxypropylcellulose) (HPC) 113 % of control | dose: 200.0 mg/kg/injection, schedule: Q04DX002 (ip), vehicle: Klucel (hydroxypropylcellulose) (HPC) 103 % of control

COc1cccc2c1CCC1=C2CC2C(=O)C1CCC2(C)O (centres undefined)
inactive: dose: 100.0 mg/kg/injection, schedule: Q01DX009 (ip), vehicle: saline 109 % of control | [2] 94 % of control | [6] 108 % of control | [4] 119 % of control | [7] 101 % of control | dose: 400.0 mg/kg/injection, schedule: Q04DX003 (ip), vehicle: saline 110 % of control

COc1ccccc1C1OC1C(=O)O (centres undefined)
inactive: [12] 102 % of control | [13] 94 % of control | [14] 103 % of control
